Reference: PubChem BioAssay AID1259333 (Broad Institute, 2017)
The source made the active and inactive calls. The rule behind the calls is not given here; tested in parental BL2 cells.

tested on: cytotoxicity, CellTiter-Glo ATP luminescence; assay: loss of cell viability by ATP content – CellTiter-Glo, cytotoxicity control, dose response (AID 1259333)

Structure (SMILES)	AC50
C[C@@H]1CN([C@H](C)CO)C(=O)c2c(c3ccccc3n2C)-c2ccccc2CO[C@H]1CN(C)C(=O)Nc1cccc(Cl)c1Cl	10.1 µM
CC(NCC(O)COCCC12CC3CC(CC(C3)C1)C2)c1ccccc1 (stereo not given)	6.49 µM
COc1ccc2c3c(n(C)c2c1)[C@@H](CO)N(C(=O)Nc1ccc(F)cc1)CC31CN(Cc2ccccc2F)C1	> 20 µM (inactive)
C[n+]1c2n(c3ccccc31)N=C(c1ccc(-c3ccccc3)cc1)CS2	6.3 µM
CC(C)CCCCCCCCCCCCC(=O)NCC(=O)NC1C(O)C(O)C(Nc2ncnc3nc[nH]c23)OC1C(O)CO (stereo not given)	9.02 µM
CC1OC(CC(=O)O)CC2=C1C(=O)c1c(O)cccc1C2=O (stereo not given)	1.06 µM
CC(=O)Nc1ccc(Sc2ccc([N+](=O)[O-])o2)cc1	6.13 µM
CN(C)c1ccc(C=c2c3cc(O)ccc3n3c2cc(-c2ccccc2)[n+]3C)cc1	10.8 µM
COc1cc(C(=O)CCN2CCC(c3ccccc3)C2)cc(OC)c1OC (stereo not given)	7.27 µM
c1cc(-c2cnn3cc(-c4ccc(OCCN5CCCCC5)cc4)cnc23)ccn1	1.44 µM
CC(C)OC(=O)c1cn(Cc2c(F)cccc2F)c2sc(-c3ccc(NC(=O)C(C)C)cc3)c(CN(C)Cc3ccccc3)c2c1=O	> 20 µM (inactive)
C[C@@H]1CN([C@H](C)CO)C(=O)c2c(c3ccccc3n2C)-c2ccccc2CO[C@H]1CN(C)Cc1cccc(C(F)(F)F)c1	> 20 µM (inactive)
C[C@H](CO)N1C[C@H](C)[C@H](CN(C)S(=O)(=O)c2ccc([N+](=O)[O-])cc2)OCc2ccccc2-c2c(n(C)c3ccccc23)C1=O	> 20 µM (inactive)
CC1=NNC(=O)C1Br (stereo not given)	9.62 µM
O=C1C=CC2C3C(=O)N(c4ccccc4)C(=O)C3C1N2Cc1ccccc1 (stereo not given)	8.98 µM
COc1cccc(-c2cc(=O)c3cc(OC)ccc3o2)c1	10.3 µM
O=C(C1CCC1)N1CCc2cc(S(=O)(=O)N3CCCCC3)ccc21	2.65 µM
C[C@@H]1CN([C@H](C)CO)C(=O)c2ccccc2-c2ccccc2CO[C@@H]1CN(C)C(=O)c1cc(Cl)cc(Cl)c1	8.71 µM
CCS(=O)(=O)N1[C@H](CO)[C@@H](c2ccc(C#Cc3ccccc3F)cc2)[C@@H]1C#N	> 20 µM (inactive)
COc1ccc(CC2C(=O)NC(C)C(=O)N(C)C3C(=O)N(C)C(Cc4ccc(O)c(c4)Oc4ccc(cc4)C3O)C(=O)NC(C)C(=O)NC(C)C(=O)N2C)cc1 (stereo not given)	8.5 µM
C[C@H](CO)N1C[C@H](C)[C@@H](CN(C)Cc2ccc(Oc3ccccc3)cc2)OCc2ccccc2-c2ccccc2C1=O	> 20 µM (inactive)
CC1=C(C#N)c2nc(N)c(C#N)c(C)c2/C1=C\c1ccccc1	8.93 µM

Structure (SMILES)	AC50
COc1c(-c2coc3cc4c(cc3c2=O)CC(O)C(C)(C)O4)ccc2c1C=CC(C)(C)O2 (stereo not given)	> 20 µM (inactive)
CCCC(=O)NC1=C(Cl)C(=O)c2ccccc2C1=O	1.12 µM
Cc1ccc(S(=O)(=O)N2CCCC2CNC(=O)c2ccc3c(c2)OCO3)cc1 (stereo not given)	4.95 µM
N#C[C@@H]1[C@H](c2ccc(C#CC3CCCCC3)cc2)[C@@H](CO)N1S(=O)(=O)c1ccccc1	7.22 µM
CC1CC(C)C(=NNC(N)=O)C(C(O)CC2CCC(=O)NC2=O)C1 (stereo not given)	> 20 µM (inactive)
COc1ccc(C[C@H]2NC[C@H](O)[C@H]2OC(C)=O)cc1	2.75 µM
Cc1ccc(S(=O)(=O)C=CS(=O)(=O)c2ccc(C)cc2)cc1	3.97 µM
C=C1CC(Cn2cc(Br)c(=O)[nH]c2=O)(c2ccc(-c3ccccc3)cc2)OC1=O (stereo not given)	6.59 µM
OC(c1cc(-c2cccc(Cl)c2)nc2ccccc12)C1CCCCN1 (stereo not given)	2.86 µM
O=C(NCCC(c1ccccc1)c1ccco1)c1cccs1 (stereo not given)	> 20 µM (inactive)
O=C1Cc2c([nH]c3ccc(Br)cc23)-c2ccccc2N1	10.2 µM
O=S(=O)(c1cccc2cnccc12)N1CCNCC1	7.09 µM
O=C(C1CC1)N1C[C@@H]2N[C@H](C1)[C@@H]2c1ccc(-c2ccncc2)cc1	> 20 µM (inactive)
CC(=O)O[C@H]1C[C@H](O[C@H]2[C@@H](O)C[C@H](O[C@H]3[C@@H](O)C[C@H](O[C@H]4CC[C@@]5(C)C(CCC6C5C[C@@H](O)[C@]5(C)[C@@H](C7=CC(=O)OC7)CC[C@]65O)C4)O[C@@H]3C)O[C@@H]2C)O[C@H](C)[C@H]1O[C@@H]1O[C@H](CO)[C@@H](O)[C@H](O)[C@H]1O (stereo not given in full)	0.758 µM
COc1cc(C(C)C)c2c(c1)S(=O)(=O)N(COc1cc(=O)n3cccc(OCCN4CCCCC4)c3n1)C2=O	10.5 µM
COC(=O)C1=C(C)NC(C)=C(C(=O)OCCCN2CCC(c3ccccc3)(c3ccccc3)CC2)[C@H]1c1cccc([N+](=O)[O-])c1	> 20 µM (inactive)
C[C@@H]1C[C@@H]([C@H](O)CC2CC(=O)NC(=O)C2)C(=O)[C@@H](C)C1	> 20 µM (inactive)
C[C@H](CO)N1C[C@H](C)[C@H](CN(C)CC2CCCCC2)OCCCC[C@H](C)Oc2ccc(NC(=O)Nc3ccc(C(F)(F)F)cc3)cc2C1=O	> 20 µM (inactive)
O=C(Nc1cccc(N2C(=O)C=CC2=O)c1)c1cccs1	2.26 µM
CC(C)Cc1ccc(C(C)CC2=CCC(CN(C)C)C2=O)cc1 (stereo not given)	3.42 µM
C[C@@H]1CN([C@@H](C)CO)C(=O)c2ccccc2-c2ccccc2CO[C@H]1CN(C)Cc1ccccc1C(F)(F)F	7.28 µM
COc1ccc(-c2cc(-c3ccccc3)c(C#N)c(S(C)=O)n2)cc1 (stereo not given)	3 µM

Structure (SMILES)	AC50
C[C@@H]1O[C@@H](O[C@H]2C[C@@H](O)[C@]3(CO)[C@H]4[C@H](O)C[C@]5(C)[C@@H](C6COC(=O)C6)CC[C@]5(O)[C@@H]4CC[C@]3(O)C2)[C@H](O)[C@H](O)[C@H]1O (stereo not given in full)	1.87 µM
O=[N+]([O-])c1ccc(N2CCOCC2)c2c1no[n+]2[O-]	2.85 µM
CC(=O)OC1CC2(O)C3CCC4CC(O)CCC4(C)C3CCC2(C)C1C1=CC(=O)OC1 (stereo not given)	0.559 µM
CC1=CC2OC3CC4OC(=O)C=CC=CC(=O)OCCC(C)C(O)C(=O)OCC2(CC1O)C4(C)C31CO1 (stereo not given)	7.23 µM
O=C1/C(=C/c2ccccc2)C[C@@]2(O)C3Cc4ccc(O)c5c4[C@@]2(CCN3CC2CC2)[C@H]1O5	2.6 µM
CN1C(=O)/C(=N\OC(=O)c2cccc3ccccc23)c2ccccc21	4.04 µM
CNC(=S)NN=C(C)CCCC(C)=NNC(=S)NC	10.3 µM
Cc1noc(C)c1S(=O)(=O)Nc1ccc2c(c1)CC(=O)N([C@@H](C)CO)C[C@@H](C)[C@@H](CN(C)Cc1ccc(Oc3ccccc3)cc1)O2	> 20 µM (inactive)
C[C@@H]1CN([C@H](C)CO)C(=O)c2c(c3ccccc3n2C)-c2ccccc2CO[C@H]1CN(C)C(=O)c1cc(Cl)cc(Cl)c1	> 20 µM (inactive)
Cc1cc(C)cc(N2C(=O)CC(Sc3nnnn3-c3ccccc3)C2=O)c1 (stereo not given)	4.02 µM
O=C1NC2c3c(Cl)sc(Cl)c3C(=O)C2O1 (stereo not given)	3.72 µM
O=C(Cn1ncc(Cl)c(Cl)c1=O)NC1CCCCC1	9.64 µM
Cc1ccsc1C(=O)OCC(=O)c1cc(C)n(CC2CCCO2)c1C (stereo not given)	> 20 µM (inactive)
CC[N+]1(C)CCC(O)(c2ccc(OC)cc2)C(C(=O)c2ccc(OC)cc2)C1 (stereo not given)	5.1 µM
COC(=O)C1=C(C(=O)OC)C(C(=O)OC)C(C(=O)OC)C(C(=O)OC)(C(=O)OC)C(C(=O)OC)=C1C(=O)OC (stereo not given)	7.79 µM
COC(=O)C12OCC34C(CC5C(C)=C(O)C(=O)CC5(C)C3C(O)C1O)OC(=O)C(OC(=O)C=C(C)C)C24 (stereo not given)	3.11 µM
O=C(Nc1ccc([N+](=O)[O-])cc1Cl)c1cc(Cl)ccc1O	> 7 µM (inactive)
C[C@H]1CN([C@@H](C)CO)C(=O)c2c(c3ccccc3n2C)-c2ccccc2CO[C@@H]1CN(C)Cc1cccc(C(F)(F)F)c1	4.21 µM
C[C@@H]1CN([C@@H](C)CO)C(=O)Cc2cc(NC(=O)Cc3cn(C)c4ccccc34)ccc2O[C@H]1CN(C)Cc1ccc(C(F)(F)F)cc1	> 20 µM (inactive)
O=C(Nc1ccc(C(F)(F)F)cc1)N1C[C@@H]2N[C@H](C1)C2c1ccc(-c2ccccc2)cc1 (stereo not given in full)	8.09 µM
Clc1ccc(C(Cn2ccnc2)OCc2ccsc2Cl)c(Cl)c1 (stereo not given)	> 20 µM (inactive)
C=C1C(=O)C23C(O)C1CCC2C12CCCC(C)(COC(C)=O)C1C(O)C3(O)OC2 (stereo not given)	5.52 µM

Structure (SMILES)	AC50
Cc1c(CCOC(=O)CC23CC4CC(CC(C)(C4)C2)C3)sc[n+]1CC(=O)c1ccccc1	5.88 µM
CCS(=O)(=O)N1Cc2ccccc2CC1C(=O)Nc1nc2ccccc2s1 (stereo not given)	5.74 µM
COCCn1c(C)cc(C(=O)COC(=O)c2ccc(Cl)c(S(N)(=O)=O)c2)c1C	3.01 µM
C[C@H]1CN([C@@H](C)CO)C(=O)c2c(c3ccccc3n2C)-c2ccccc2CO[C@@H]1CN(C)S(=O)(=O)c1ccc([N+](=O)[O-])cc1	> 20 µM (inactive)
O=C(COC(=O)c1ccccc1C(=O)c1ccc(Cl)c([N+](=O)[O-])c1)NC1CC1	2.45 µM
COc1cccc(C#Cc2ccc([C@H]3[C@@H](C#N)N(C(=O)c4ccccn4)[C@@H]3CO)cc2)c1	9.74 µM
CC(C)(C)[C@H](N)C(=O)N[C@H]1CCC2C3CC=C4C[C@@H](O)CC[C@]4(C)C3CC[C@@]21C (stereo not given in full)	5.7 µM
COc1ccc(/C=C2/CCC(CN3CCOCC3)C2=O)cc1 (stereo not given)	7.4 µM
CC(C)[C@H](N)C(=O)N[C@H]1CCC2C3CC=C4C[C@@H](O)CC[C@]4(C)C3CC[C@@]21C (stereo not given in full)	6.89 µM
C[C@@H]1CC=CC[C@H](c2ccc(F)cc2)NC(=O)[C@@H](Cc2ccccc2)N(C)C(=O)c2ccccc2O1 (mixture of isomers)	> 20 µM (inactive)
CC1OC(OC2C(O)CC(OC3C(O)CC(OC4CCC5(C)C(CCC6C5CCC5(C)C(C7=CC(=O)OC7)C(O)CC65O)C4)OC3C)OC2C)CC(O)C1O (stereo not given)	0.625 µM
COc1ccc(CN(CCC(c2ccccc2)c2ccc(OC(C)C)cc2)C(=O)CCl)cc1OC (stereo not given)	2.54 µM
C1CCC(C(CC2CCCCN2)C2CCCCC2)CC1 (stereo not given)	2.37 µM
C=CC[n+]1c(/C=C2\C=Cc3cc(C)ccc3N2CC)ccc2ccccc21	7.46 µM
CC(=O)OC1C(=O)OCC23CCC4(C)OC4C2OC2CC(OC(=O)C=CC=CC(=O)OCCC1C)C3(C)C21CO1 (stereo not given)	> 7 µM (inactive)
COc1ccc(S(=O)(=O)Nc2ccc3c(c2)C(=O)N([C@@H](C)CO)C[C@H](C)[C@H](CN(C)Cc2ccc(C(F)(F)F)cc2)OCCCC[C@H](C)O3)cc1	> 20 µM (inactive)
Cn1cc(C2=C(c3cn(CCCSC(=N)N)c4ccccc34)C(=O)NC2=O)c2ccccc21	0.388 µM
CCN(CC)C(=O)c1ccc(NC(=O)Nc2ccccc2F)cc1	3.45 µM
N#C[C@@H]1[C@H](c2ccc(C#CC3CCCC3)cc2)[C@@H](CO)N1C(=O)Nc1ccc(F)cc1	> 20 µM (inactive)
